SMILES strings stand for the structures. Calls of active or inactive are those of the source. The calls are words filed in the database; no cut-off is given here.

T1 sequence (P22303 whole entry): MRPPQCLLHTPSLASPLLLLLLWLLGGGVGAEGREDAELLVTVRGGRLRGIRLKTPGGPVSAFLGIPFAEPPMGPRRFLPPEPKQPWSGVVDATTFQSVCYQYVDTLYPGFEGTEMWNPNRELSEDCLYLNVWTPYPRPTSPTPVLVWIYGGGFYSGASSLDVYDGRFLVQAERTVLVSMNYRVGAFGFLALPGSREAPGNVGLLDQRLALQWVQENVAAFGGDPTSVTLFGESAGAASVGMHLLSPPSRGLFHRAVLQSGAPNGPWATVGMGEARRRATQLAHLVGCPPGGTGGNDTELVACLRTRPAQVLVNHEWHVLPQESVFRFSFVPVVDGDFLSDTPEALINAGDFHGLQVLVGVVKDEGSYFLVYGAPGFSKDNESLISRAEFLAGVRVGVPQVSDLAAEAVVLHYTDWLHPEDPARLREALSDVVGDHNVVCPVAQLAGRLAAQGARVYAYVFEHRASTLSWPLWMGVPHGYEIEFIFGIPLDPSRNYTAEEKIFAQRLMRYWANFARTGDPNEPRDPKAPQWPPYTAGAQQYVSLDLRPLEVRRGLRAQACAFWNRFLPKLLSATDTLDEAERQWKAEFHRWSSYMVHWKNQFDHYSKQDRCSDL

One assay has as its target T1, Acetylcholinesterase (Homo sapiens, UniProt P22303). Description: Inhibition of human AChE using acetylthiocholine as substrate by Ellman's method. Background: Ellman's reagent forms a yellow product with free thiols.
Regarding `O=C(Nc1ccc2c(c1)CN(C(=O)c1cccc(Cl)c1)C(=O)C2)c1ccccc1`, the IC50 (commonly the concentration that inhibits the measured activity by half) is 0.0284 nM.

On to `O=C1Cc2ccc(NC(=O)c3ccccc3)cc2CN1`, for which the IC50 amounted to 1320 nM.

Regarding `COc1ccccc1C(=O)Nc1ccc2c(c1)CN(C(=O)c1ccccc1OC)C(=O)C2`, the IC50 came to 0.0216 nM.

As for `O=C(Nc1ccc2c(c1)CN(C(=O)c1cccc(Cl)c1)C(=O)C2)c1cccc(Cl)c1`, the IC50 is 0.0142 nM. Compared with the last compound, the IC50 is about 1.5-fold lower.

In turn, `COc1ccccc1C(=O)N1Cc2cc(NC(=O)c3ccccc3)ccc2CC1=O` gave a concentration for half-maximal inhibition (IC50) of 0.0189 nM.

`Cc1cccc(C(=O)N2Cc3cc(NC(=O)c4cccc(Cl)c4)ccc3CC2=O)c1`: the IC50 stood at 0.0144 nM.

`Cc1cccc(C(=O)Nc2ccc3c(c2)CN(C(=O)c2cccc(Cl)c2)C(=O)C3)c1`: the IC50 turned out to be 0.0209 nM.

Compound `COc1ccccc1C(=O)Nc1ccc2c(c1)CNC(=O)C2` showed an IC50 of 926 nM.

Take `Cc1cccc(C(=O)Nc2ccc3c(c2)CN(C(=O)c2cccc(C)c2)C(=O)C3)c1`: the half-maximal inhibitory concentration (IC50) is 0.0135 nM.

With `O=C(Nc1ccc2c(c1)CN(C(=O)c1ccccc1)C(=O)C2)c1ccccc1`, the midpoint of inhibition, the IC50, lay at 0.51 nM.

For `O=C1Cc2ccc(NC(=O)c3cccc(Cl)c3)cc2CN1`, the IC50 is 914 nM.

On to `Cc1cccc(C(=O)N2Cc3cc(NC(=O)c4ccccc4)ccc3CC2=O)c1`, for which the IC50 came out at 0.0262 nM.

`Cc1cccc(C(=O)Nc2ccc3c(c2)CNC(=O)C3)c1` returned a half-maximal inhibitory concentration (IC50) of 791 nM.

Regarding `COc1ccccc1C(=O)Nc1ccc2c(c1)CN(C(=O)c1cccc(C)c1)C(=O)C2`, half-maximal inhibition (IC50) was put at 0.0259 nM.

`Nc1ccc2c(c1)CNC(=O)C2` came in with an IC50 of 1360 nM.

In another assay the target is T1, Acetylcholinesterase. The assay can be described thus: Potency index, ratio of donepezil IC50 to compound IC50 for human AChE.
Regarding `COc1ccccc1C(=O)N1Cc2cc(NC(=O)c3ccccc3)ccc2CC1=O`, the Ratio IC50 turned out to be 181.

As to `COc1ccccc1C(=O)N1Cc2cc(NC(=O)c3cccc(Cl)c3)ccc2CC1=O`, the Ratio IC50 came out at 315.

Tested on in a further assay: not listed separately
The assay can be described thus: Metal chelating activity assessed as Cu2+-compound complex formation at 35 uM by UV-Visible spectrophotometric method.
As to `COc1ccccc1C(=O)N1Cc2cc(NC(=O)c3ccccc3)ccc2CC1=O`, the result was Active.

These data come from ChEMBL document CHEMBL4190278, “Multipotent AChE and BACE-1 inhibitors for the treatment of Alzheimer's disease: Design, synthesis and bio-analysis of 7-amino-1,4-dihydro-2H-isoquilin-3-one derivates” (Eur J Med Chem, 2017).
